Data on 6 molecules can be found in patent publication US12187785B2, “Recombinant protein and fragments thereof, method for producing said recombinant protein, synthetic gene and use of sculptin or recombinant protein for preparing a medicament or pharmaceutical composition for the prophylaxis and/or treatment of thromboembolic diseases or as a direct and specific …” (priority 2017, dated 2025).

For series [1] the following is noted: in plasma in healthy human volunteers; intravenously; cited from earlier work.
Series [2] addresses T1, thrombin (Homo sapiens, UniProt P00734). The following applies: literature values; cited from earlier work.
For series [3], the target named is T1, thrombin. As to the kind of experiment: Thrombin inhibition test of recombinant protein fragments generated by factor Xa. The format is biochemical. The following applies: fragment 100 pM, thrombin 0.1 nM, S-2238 15 μM. On the set-up: Brown and cyan colors represent heavy and light chain of thrombin respectively. Here is the method:
Recombinant protein (10 μM) was incubated with or without factor Xa 1 μM in phosphate buffer 50 mM containing NaCl 150 mM, and phosphatidylserine and phosphatidylcholine 50 μM, pH 7.4 for 18 h at 37° C. (A) Reaction mixtures were split through reverse phase HPLC column C-18. (B) Gathered peaks (H1-H5) were subjected to MALDI-TOF MS and thrombin inhibition test (see table 1, for correspondent peptide sequence). (C) Typical progress curves for hydrolysis of chromogenic substrate S-2238 15 μM by thrombin 0.1 nM in absence (trace Ctrl) and presence of recombinant protein fragment 100 pM (traces H1 and H3) or preserved recombinant protein (trace Scpt) in phosphate buffer 50 mM containing NaCl 150 mM and 0.1% of PEG 6000, pH 7.4 at 37° C. (D) Percentage of thrombin inhibition by recombinant protein and fragments thereof. Reaction conditions of percentage of thrombin inhibition were obtained from (C).
In addition, recombinant protein was incubated with factor Xa for 18 h and resulting peptides were split by reverse phase chromatography (FIG. 6A). Peaks (named as H1, H2, H3 H4 and H5) were gathered and undergone to mass spectrometry MALDI-TOF (FIG. 6B). In accordance with analysis of mass spectrometry, H1 corresponds to average mass of 5153.57 Da, H2 corresponds to average mass of 3667.50 Da and 4582.40 Da and H3 corresponds to average mass of 8220.55 Da and 6770.60 Da. Similarly, H4 corresponds to average mass of 7299.61 Da and 12427.54 Da and H5 corresponds to 16990.90, 12427.54 Da and 11843.17 Da (FIG. 6B, Table 1). Further, fractions (H1, H2, H3 and H4) were undergone to test of thrombin inhibition (FIG. 6C). Fractions H1, H2, H3 and H4 retained thrombin inhibition activity of about 50%, 45%, 70% and 80% respectively, of preserved no hydrolyzed recombinant protein (FIG. 6D). Peak H5 had mainly preserved recombinant protein, thus it was not considered for test of thrombin inhibition.

As to `CC1CNc2c(cccc2S(=O)(=O)N[C@@H](CCCNC(=N)N)C(=O)N2CC[C@@H](C)C[C@@H]2C(=O)O)C1` (stereo partly drawn) [Argatroban], the Half-life in series [1] is reported as 50 min. In series [2], the “Inhibition Type” value is “No competing”. Usually Ki stands for a dissociation constant, usually derived from enzyme kinetics or from competition with a known ligand. Bivalirudin: the Half-life in series [1] is reported as 25 min. In series [2], the “Inhibition Type” value is on record as “No competing” and the Ki was 1.9 ± 2.6 nM. On to “GKPQGHPHDALEARSDAVHTAVPKMPKGGHGGFEPIPIDYDERALEAR (Sculptin fragments generated by Xa factor) [H1, HPLC peak of recombinant protein hydrolyzed by factor Xa, average mass 5153.57 Da]”, for which, in series [3], the “thrombin inhibition activity retained, of preserved no hydrolyzed recombinant protein” value is listed as “about 50%”.

B1: H2: HPLC peak of factor Xa hydrolysate, masses 3667.50 and 4582.40 Da (SEQ ID NO: 11 and 12) (protein)
chain 1: SDAVHTAVPKMPKGGHGGFEPIPIDYDERALEAR
chain 2: SDAVHTAVPKMPKGGHGGFEPIPIDYDERALHALEHHHHHH
modifications: Sculptin fragments generated by Xa factor
For the molecule B1, the “thrombin inhibition activity retained, of preserved no hydrolyzed recombinant protein” value in series [3] is reported as roughly 45%.

B2: H3: HPLC peak of factor Xa hydrolysate, masses 8220.55 and 6770.60 Da (SEQ ID NO: 13 and 14) (protein)
chain 1: SDAVHTAVPKMPKGGHGGFEPIPIDYDERALEARSDAVHTAVPKMPKGGHGGFEPIPIDYDERALHALEHHHHHH
chain 2: SDAVHTAVPKMPKGGHGGFEPIPIDYDERALEARSDAVHTAVPKMPKGGHGGFEPIPIDYDER
modifications: Sculptin fragments generated by Xa factor
Take B2: in series [3], the “thrombin inhibition activity retained, of preserved no hydrolyzed recombinant protein” value is reported as roughly 70%.

B3: H4: HPLC peak of factor Xa hydrolysate, masses 7299.61 and 12427.54 Da (SEQ ID NO: 15 and 16) (protein)
chain 1: SDAVHTAVPKMPKGGHGGFEPIPIDYDERALEARSDAVHTAVPKMPKGGHGGFEPIPIDYDERALEAR
chain 2: GKPQGHPHDALEARSDAVHTAVPKMPKGGHGGFEPIPIDYDERALEARSDAVHTAVPKMPKGGLGGFEPIPIDYDERALEARSDAVHTAVPKMPKGGHGGFEPIPIDYDERALEAR
modifications: Sculptin fragments generated by Xa factor
Turning to B3, in series [3], the “thrombin inhibition activity retained, of preserved no hydrolyzed recombinant protein” value is reported as roughly 80%.
